Experimental data from patent US20100015126A1, “Methods of Binding of Cross-Beta Structures By Chaperones” (priority 2006, published 2010).

Target: T1, Escherichia coli HSP70 family member DnaK (Escherichia coli, UniProt P0A6Y8)
T1 construct: purchased Stressgen (Ann Arbor, Mich., USA) SPP-630
Experiment: Competition ELISA: DnaK binding under influence of ThT and Congo red
Conditions: 20 μg/ml DnaK; 1 mM dye
Experimental: Binding of chaperones to immobilized (misfolded) protein ligands was determined using an enzyme linked immuno sorbent assay (ELISA) approach. For this purpose 50 μl/well of potential ligands at indicated concentrations or coat buffer only for control and background measurement purposes, were coated overnight at 4° C. or coated for 1 h at room temperature, with motion, in 50 mM NaHCO3 pH 9.6 (coat buffer). In general, ligands were coated at 5 μg/ml, unless stated otherwise. For example, BiP binding peptides 6BB# and oxLDL were coated at 50 μg/ml. Native haemoglobin (Sigma-Aldrich, H7379), albumin, IgIV Gammagard and ovalbumin controls were prepared from lyophilized stocks. The controls were prepared by dissolving lyophilized proteins at 1 mg/ml in PBS upon resuspending by pipetting, followed by a 30 minutes period at the roller device, at room temperature. The protein solutions were centrifuged for 10 minutes at 16,000*g and diluted in coat buffer. After coating the plates were washed at least three times with 50 mM Tris-HCl pH 7.3, 150 mM NaCl, 0.1% v/v Tween20, and blocked with Blocking reagent (Roche Diagnostics, Almere, The Netherlands; 11112589001), for 1 h at room temperature, with motion. Plates were washed three times and incubated in triplicate with indicated chaperone dilution series, at 50 μl/well, for 1 h at room temperature, with constant motion. For HSP90, 5 mM DTT is incorporated in the binding buffer (PBS/0.1% Tween20) to avoid unwanted disulfide bond formation of the HSP90. Plates were washed three times and incubated with anti-FLAG antibody (mouse antibody, M2, peroxidase conjugate; Sigma, A-8592) for BiP-FLAG-His, anti-His-tag antibody (Mouse Monoclonal Antibody, Cat. No. 70796, Novagen [0.2 mg/ml]) for HSP60, a 1:1 mix of 500-fold diluted anti-HSP90beta antibodies (Stressgen, SPA-643 [mouse monoclonal IgM], SPA-646 [rabbit polyclonal]) for HSP90 and an anti-DnaK antibody (Stressgen, 023SPA-880D [mouse monoclonal antibody]) for DnaK. After four wash cycles, secondary antibodies were added to the wells when required, 50 μl/well, for 45′ at room temperature, with motion. RAMPO and SWARPO were used at 3000 times dilution. […] In a second experiment with more immobilized misfolded proteins and controls, the detection of bound HSP90 with the mix of two anti-HSP90 antibodies was achieved by mixing 1:1500 SWARPO with 1:3000 RAMPO. After 5 washes with wash buffer followed by two washes with PBS, binding of antibodies was assessed. […] Plates were read at 450 nm. Triplicates were averaged and standard deviations calculated. […] Subsequently, sub-optimal concentrations of chaperones for binding to misfolded protein ligands are determined, and these concentrations are used for inhibition studies. […]

T1 sequence (P0A6Y8 whole entry): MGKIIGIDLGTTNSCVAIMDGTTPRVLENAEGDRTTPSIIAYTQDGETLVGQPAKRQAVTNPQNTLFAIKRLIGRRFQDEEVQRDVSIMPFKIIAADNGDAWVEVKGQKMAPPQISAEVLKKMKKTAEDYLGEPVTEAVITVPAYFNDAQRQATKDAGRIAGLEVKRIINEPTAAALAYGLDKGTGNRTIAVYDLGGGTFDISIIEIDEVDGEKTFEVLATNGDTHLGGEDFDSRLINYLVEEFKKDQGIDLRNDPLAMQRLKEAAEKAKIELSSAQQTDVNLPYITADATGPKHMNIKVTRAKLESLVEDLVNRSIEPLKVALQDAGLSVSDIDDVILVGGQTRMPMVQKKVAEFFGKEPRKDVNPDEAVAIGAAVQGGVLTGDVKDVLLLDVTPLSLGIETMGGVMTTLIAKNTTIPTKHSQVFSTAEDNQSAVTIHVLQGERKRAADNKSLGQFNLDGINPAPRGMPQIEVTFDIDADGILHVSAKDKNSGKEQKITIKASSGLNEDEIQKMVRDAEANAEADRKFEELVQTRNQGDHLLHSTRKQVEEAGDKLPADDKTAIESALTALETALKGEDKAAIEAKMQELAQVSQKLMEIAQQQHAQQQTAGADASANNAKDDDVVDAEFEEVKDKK

Row | Compound | Binding of DnaK to immobilized HbAGE under influence of compound | Binding of DnaK to immobilized dIgIV-86 under influence of compound
1 | Nc1c(/N=N/c2ccc(-c3ccc(/N=N/c4cc(S(=O)(=O)O)c5ccccc5c4N)cc3)cc2)cc(S(=O)(=O)O)c2ccccc12 [Congo red] | inhibit | inhibit
2 | Cc1ccc2c(c1)sc(-c1ccc(N(C)C)cc1)[n+]2C.[Cl-] [ThT, Thioflavin T] | inhibit | inhibit
